In assay [1] the test system is Bemisia tabaci. Briefly: Insecticidal activity against Bemisia tabaci (sweet potato whitefly) second-instar larvae infested five weeks old cotton plants followed by compound 250 ppm compound spraying after insect oviposit assessed as insect mortality measured 13 days post compound treatment under green house conditions. The assay is classed as functional.
Assay [2] concerns Trichoplusia ni. Briefly: Insecticidal activity against Trichoplusia ni (cabbage looper) second-instar larvae infested on 400 ppm compound pre-treated cabbage leaf disk assessed as insect mortality measured 5 days post compound treatment under green house conditions. The assay is classed as functional. The settings on record: at 400 ppm.
Assay [3] deals with Spodoptera exigua. Briefly: Insecticidal activity against Spodoptera exigua second-instar larvae feeded on 400 ppm compound treated lepidopteran diet assessed as insect mortality measured 5 days post compound treatment under green house conditions. The assay is classed as functional. The settings on record: at 400 ppm.
Assay [4] has as its system Heliothis virescens.
Assay [5] relates to Tetranychus urticae.
The subject of assay [6] is Aphis gossypii.
In assay [7] the test system is Trichoplusia ni.
Assay [8] deals with Tetranychus urticae. Briefly: Insecticidal activity against female Tetranychus urticae (two-spotted spider mite) infested cotton leaf disks followed by 2.5 ppm compound spraying after oviposit assessed as insect mortality measured after 6 days post compound application under green house conditions. The settings on record: foliar, 144 h. The assay is classed as functional.
Assay [9] relates to Aphis gossypii. Briefly: Insecticidal activity against Aphis gossypii (cotton aphid) infested one week old Crookneck squash plants assessed as insect mortality at 50 ppm measured after 3 days post compound application under green house conditions. The assay is classed as functional. The settings on record: 72 h.
The test system of assay [10] is Bemisia tabaci.
For assay [11], the system named is Heliothis virescens. Briefly: Insecticidal activity against Heliothis virescens (tobacco budworm) second-instar larvae infested on 400 ppm compound pre-treated cotton cotyledon disk assessed as insect mortality measured 5 days post compound treatment under green house conditions. The assay is classed as functional.
Assay [12] relates to Spodoptera exigua.

SMILES strings stand for the structures. Activity calls are given as the source filed them. No cut-off for these calls is given here.

What is called mortality is the percentage killed. As for `Cn1nc(-c2c(F)cccc2Cl)nc1-c1ccc(-c2ccc(F)cc2)s1`, the mortality in assay [1] was below 50%; in [2], 80%; in assay [3] it was below 50%. Besides, the mortality entry in [4], in [5] and in assay [6] was “inactive” throughout.

As to `Cn1nc(-c2c(F)cccc2Cl)nc1-c1cc(Br)c(-c2cccc(OC(F)(F)F)c2)s1`, the mortality in [1] and in assay [3] was below 50% in each case. For the same molecule, the mortality result in assay [7], in [4], in assay [5] and in assay [6] was “inactive” throughout.

As to `Cc1c(-c2ccc(C(F)(F)F)cc2)csc1-c1nc(-c2c(F)cccc2Cl)nn1C`, the mortality is below 50% in assay [1], 90% in assay [2] and 60% in assay [3]. The mortality at 2.5 ppm in assay [8] came to 60%. Moreover, the mortality at 50 ppm in assay [9] was determined as 60%. For the same molecule, in assay [4], the mortality result was “inactive”.

For the molecule `Cn1nc(-c2c(F)cccc2Cl)nc1-c1cc(-c2ccc(Cl)cc2)c(Cl)s1`, the mortality in assay [3] came out at 50%. For the same molecule, the mortality entry in assay [4], in [5] and in [6] was “inactive” each time.

For the molecule `COCCOc1cccc(-c2cc(C)c(-c3nc(-c4c(F)cccc4Cl)nn3C)s2)c1`, the mortality in [2] is 70%; in assay [3] it was 80%. In addition, the mortality at 2.5 ppm in assay [8] was below 50%. In assay [9], the mortality at 50 ppm was below 50%. For the same molecule, the mortality entry in assay [10] and in assay [4] was “inactive” each time.

Turning to `Cn1nc(-c2c(F)cccc2Cl)nc1-c1cc(Br)c(-c2ccc(OC(F)(F)F)cc2)s1`, the mortality is given as below 50% in assay [1], 90% in [2] and 90% in assay [11]. Further, the mortality at 2.5 ppm in assay [8] amounted to 90%. Besides, the mortality entry in [12] and in assay [6] was “inactive” each time.

Regarding `COc1ccc(-c2ccc(-c3nc(-c4c(F)cccc4F)nn3C)s2)cc1`, the mortality is given as below 50% in assay [2] and 90% in assay [3]. In addition, the mortality entry in assay [10], in assay [4], in assay [5] and in assay [6] was “inactive” each time.

For the molecule `Cn1nc(-c2c(F)cccc2F)nc1-c1sc(-c2ccc(C(F)(F)F)cc2)cc1Cl`, the mortality is below 50% in [2] and 90% in assay [11]. For the same molecule, in assay [8], the mortality at 2.5 ppm stood at 90%. Further, the mortality entry in assay [10], in assay [12] and in assay [6] was “inactive” in each case.

Take `Cc1c(-c2nc(-c3c(F)cccc3Cl)nn2C)sc(-c2ccc(OC(F)(F)F)cc2)c1Br`: the mortality in assay [2] and in [3] was 90% each time. Moreover, in assay [8], the mortality at 2.5 ppm was determined as 90%. Also, the mortality entry in assay [10], in assay [4] and in assay [6] was “inactive” each time.

Take `Cc1cc(C2=CCC(O)CC2)sc1-c1nc(-c2c(F)cccc2Cl)nn1C` (configuration not stated): the mortality in [1] and in [11] was below 50% in each case. Moreover, the mortality at 50 ppm in [9] was below 50%. In addition, the mortality result in assay [7], in [12] and in assay [5] was “inactive” each time.

Consider `Cc1cc(-c2ccc3c(c2)OC(F)(F)O3)sc1-c1nc(-c2c(F)cccc2Cl)nn1C`, for which the mortality in assay [1] is listed as below 50%; in [3], 80%. Further, the mortality result in assay [7], in [4], in [5] and in assay [6] was “inactive” each time.

Take `Cn1nc(-c2c(F)cccc2Cl)nc1-c1cc(Br)c(-c2cccc(C(F)(F)F)c2)s1`: the mortality in [3] was below 50%. Besides, the mortality entry in assay [10], in assay [7], in assay [4], in [5] and in assay [6] was “inactive” throughout.

On to `Cc1c(-c2nc(-c3c(F)cccc3Cl)nn2C)sc(Cl)c1-c1ccc(OC(F)(F)F)cc1`, for which the mortality in assay [1] is reported as below 50%; in assay [3], 90%. For the same molecule, the mortality at 2.5 ppm in assay [8] was determined as 90%. The mortality entry in assay [7], in assay [4] and in assay [6] was “inactive” each time.

For the molecule `Cc1cc(C2CCC(O)CC2)sc1-c1nc(-c2c(F)cccc2Cl)nn1C` (configuration not stated), the mortality in assay [1] is reported as 50%; in [11], below 50%. The mortality result in assay [7], in assay [12], in assay [5] and in assay [6] was “inactive” in each case.

Turning to `Cn1nc(-c2c(F)cccc2Cl)nc1-c1ccc(-c2cccc(OC(F)(F)F)c2)s1`, the results for the mortality in assay [2] and in assay [3] were 80% and below 50%, respectively. For the same molecule, the mortality entry in [10], in assay [4], in assay [5] and in [6] was “inactive” in each case.

For `Cc1ccc(-c2cc(Cl)c(-c3nc(-c4c(F)cccc4F)nn3C)s2)cc1`, the mortality in assay [11] is recorded as 80%. The mortality at 2.5 ppm in assay [8] was 90%. For the same molecule, the mortality entry in [10], in assay [7], in assay [12] and in assay [6] was “inactive” in each case.

Consider `Cn1nc(-c2c(F)cccc2F)nc1-c1cc(-c2ccccc2)c(C(F)(F)F)s1`, for which the mortality in [3] is reported as 50%. Also, the mortality entry in assay [7], in [4], in assay [5] and in assay [6] was “inactive” in each case.

Take `COc1ccc(-c2csc(-c3nc(-c4c(F)cccc4F)nn3C)c2)cc1`: the mortality in assay [1] worked out at 60%; in assay [2], 80%; in [3], 50%. Also, the mortality result in assay [4], in assay [5] and in assay [6] was “inactive” each time.

As to `Cc1cc(C2=CCC(OC(F)(F)C(F)Br)CC2)sc1-c1nc(-c2c(F)cccc2Cl)nn1C` (configuration not stated), the mortality in assay [3] is reported as below 50%. The mortality at 50 ppm in assay [9] was below 50%. Further, the mortality result in assay [7], in assay [4] and in assay [5] was “inactive” in each case.

In the case of `Cc1cc(-c2ccc(Cl)c(Cl)c2)sc1-c1nc(-c2c(F)cccc2Cl)nn1C`, the results for the mortality in [2] and in assay [3] were 60% and 70%, respectively. For the same molecule, the mortality entry in assay [10], in assay [4], in assay [5] and in assay [6] was “inactive” throughout.

Turning to `Cc1sc(-c2nc(-c3c(F)cccc3Cl)nn2C)c(C)c1-c1ccc(O)cc1`, the mortality in [1] and in assay [11] was below 50% throughout. The mortality result in [7], in assay [12], in [5] and in assay [6] was “inactive” each time.

Consider `CCOc1ccc(-c2ccc(-c3nc(-c4c(F)cccc4Cl)nn3C)s2)cc1`, for which the mortality is on record as below 50% in assay [1], 90% in assay [2] and 80% in assay [3]. In addition, the mortality result in assay [4], in assay [5] and in assay [6] was “inactive” in each case.

With `Cn1nc(-c2c(F)cccc2F)nc1-c1ccc(-c2ccc(OC(F)(F)F)cc2)s1`, the mortality in assay [2] and in [11] was 90% in each case. For the same molecule, the mortality entry in assay [10], in assay [12], in [5] and in assay [6] was “inactive” in each case.

In the case of `Cc1cc(C2CCC(OC(=O)C(F)(F)Br)CC2)sc1-c1nc(-c2c(F)cccc2Cl)nn1C` (configuration not stated), in assay [3], the mortality is below 50%. The mortality entry in assay [7], in assay [4], in [5] and in assay [6] was “inactive” in each case.

For the molecule `Cc1c(-c2nc(-c3c(F)cccc3Cl)nn2C)sc(Br)c1-c1ccc(OC(F)(F)F)cc1`, the mortality in assay [3] is given as 90%. For the same molecule, the mortality at 2.5 ppm in assay [8] worked out at 50%. Also, the mortality entry in [10], in assay [7], in assay [4] and in assay [6] was “inactive” throughout.

As to `Cc1ccc(-c2sc(-c3nc(-c4c(F)cccc4Cl)nn3C)cc2Br)cc1`, the mortality in [1] and in [3] was below 50% throughout. In addition, the mortality result in [7], in assay [4], in assay [5] and in assay [6] was “inactive” in each case.

Turning to `Cn1nc(-c2c(F)cccc2Cl)nc1-c1sc(-c2ccc(O)cc2)cc1Cl`, in assay [11], the mortality is given as 60%. The mortality at 50 ppm in assay [9] was below 50%. In addition, the mortality entry in assay [10], in assay [7], in assay [12] and in assay [5] was “inactive” each time.

Values taken from ChEMBL document CHEMBL3044558, “Structure-activity relationship development of dihaloaryl triazole compounds as insecticides and acaricides. 1. Phenyl thiophen-2-yl triazoles” (2007).
